Results published in patent US9527869B2, “Indolizine derivatives as phoshoinositide 3-kinases inhibitors” (CHIESI FARMACEUTICI S.P.A., priority 2014, dated 2016).

Legend:
Assay type in all cases: biochemical
PI3Kα = target: T1, PI3Kα (Homo sapiens, UniProt P42336); experiment: In vitro determination of the PI3K enzyme inhibitory activity in the cell free assay (ADP-Glo Kinase Assay), PI3Kα; settings: ATP 50 μM, read-out: PI3K alpha inhibition
T1 construct: purchased Millipore Ltd (Billerica, Mass.)
T1 sequence (P42336 whole entry): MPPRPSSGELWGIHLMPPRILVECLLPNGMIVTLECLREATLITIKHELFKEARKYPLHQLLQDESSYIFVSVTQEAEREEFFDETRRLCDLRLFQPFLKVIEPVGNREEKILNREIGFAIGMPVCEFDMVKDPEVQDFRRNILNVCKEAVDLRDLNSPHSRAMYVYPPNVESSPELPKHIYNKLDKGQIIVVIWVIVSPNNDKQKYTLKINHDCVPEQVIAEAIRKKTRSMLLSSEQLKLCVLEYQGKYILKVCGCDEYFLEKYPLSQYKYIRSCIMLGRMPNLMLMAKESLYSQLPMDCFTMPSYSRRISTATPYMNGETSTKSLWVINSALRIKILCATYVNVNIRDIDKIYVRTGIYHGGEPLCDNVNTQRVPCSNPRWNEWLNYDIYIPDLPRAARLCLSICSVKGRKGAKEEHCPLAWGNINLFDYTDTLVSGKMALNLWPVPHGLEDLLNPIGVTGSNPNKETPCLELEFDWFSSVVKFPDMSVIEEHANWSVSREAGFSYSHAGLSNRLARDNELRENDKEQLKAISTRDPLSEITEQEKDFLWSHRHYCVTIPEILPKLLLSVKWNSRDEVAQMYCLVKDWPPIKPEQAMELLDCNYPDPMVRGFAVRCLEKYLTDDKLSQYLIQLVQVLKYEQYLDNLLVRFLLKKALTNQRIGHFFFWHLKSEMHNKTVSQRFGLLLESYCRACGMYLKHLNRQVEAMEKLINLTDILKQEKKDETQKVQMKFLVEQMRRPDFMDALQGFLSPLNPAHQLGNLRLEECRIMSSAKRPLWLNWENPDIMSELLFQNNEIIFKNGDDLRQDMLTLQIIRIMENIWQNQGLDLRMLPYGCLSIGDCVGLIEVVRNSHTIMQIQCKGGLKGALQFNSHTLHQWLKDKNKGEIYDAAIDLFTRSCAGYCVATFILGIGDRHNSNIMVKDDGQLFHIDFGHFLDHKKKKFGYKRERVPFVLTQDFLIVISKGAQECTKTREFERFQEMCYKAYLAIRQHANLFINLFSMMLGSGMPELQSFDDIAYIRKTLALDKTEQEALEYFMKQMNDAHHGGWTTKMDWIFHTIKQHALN
T1 sequence (P27986 whole entry partner): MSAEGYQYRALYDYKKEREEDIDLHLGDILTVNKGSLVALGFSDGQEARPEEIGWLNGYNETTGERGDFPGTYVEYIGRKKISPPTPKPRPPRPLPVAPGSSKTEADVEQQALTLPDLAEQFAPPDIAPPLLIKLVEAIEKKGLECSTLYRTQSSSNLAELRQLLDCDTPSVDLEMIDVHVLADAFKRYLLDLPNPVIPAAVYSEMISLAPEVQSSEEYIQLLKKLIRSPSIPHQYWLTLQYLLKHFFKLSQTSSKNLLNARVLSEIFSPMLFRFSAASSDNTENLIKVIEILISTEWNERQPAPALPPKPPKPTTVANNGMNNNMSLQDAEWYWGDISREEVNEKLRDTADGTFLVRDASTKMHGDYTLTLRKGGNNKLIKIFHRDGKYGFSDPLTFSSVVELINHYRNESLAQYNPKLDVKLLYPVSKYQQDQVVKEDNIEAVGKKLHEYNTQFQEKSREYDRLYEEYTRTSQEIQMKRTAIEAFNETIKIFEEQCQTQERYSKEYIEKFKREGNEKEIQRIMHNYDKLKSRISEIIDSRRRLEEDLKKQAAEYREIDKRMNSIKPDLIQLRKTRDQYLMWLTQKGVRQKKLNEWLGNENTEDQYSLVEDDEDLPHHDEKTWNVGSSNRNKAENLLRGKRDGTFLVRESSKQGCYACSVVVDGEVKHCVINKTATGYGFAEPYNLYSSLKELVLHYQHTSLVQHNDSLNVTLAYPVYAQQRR
Protocol: (§1) In vitro Determination of the PI3K Enzyme Inhibitory Activity in the Cell Free Assay
(§2) Human recombinant proteins PI3Kα, PI3Kβ, PI3Kγ and PI3Kδ were purchased from Millipore Ltd (Billerica, Mass.). Compounds were dissolved at 0.5 mM in DMSO and were tested at different concentrations for their activity against PI3Ks using the ADP-Glo™ Kinase Assay (Promega, Madison Wis.) according to the manufacturer's instructions.
(§3) Briefly, the kinase reactions were performed in 384-well white plates (Greiner Bio-One GmbH, Frickenhausen). Each well was loaded with 0.1 μl of test compounds and 2.5 μl of 2× reaction buffer (40 mM Tris pH7.5, 0.5 mM EGTA, 0.5 mM Na3VO4, 5 mM β-glycerophosphate, 0.1 mg/ml BSA, 1 mM DTT), containing 50 μM PI and PS substrates (L-α-phosphatidylinositol sodium salt and L-α-phosphatidyl-L-serine, Sigma-Aldrich, St. Louis Mo.) and the PI3K recombinant proteins (PI3Kγ 0.25 ng/μl, PI3Kδ 1 ng/μl, PI3Kα 0.125 ng/μl, PI3Kβ 1 ng/μl).
(§4) The reactions were started by adding 2.5 μl of 2×ATP solution to each well (final concentrations: PI3Kγ ATP 30 μM; PI3Kδ ATP 80 μM; PI3KαATP 50 μM; PI3Kβ ATP 100 μM) and incubated for 60 min at room temperature. Subsequently, each kinase reaction was incubated for 40 min with 5 μl ADP-Glo™ Reagent, allowing depletion of unconsumed ATP. Then, the Kinase Detection Reagent (10 μl) was added in each well to convert ADP to ATP and to allow the newly synthesized ATP to be measured using a luciferase/luciferin reaction. Following 60 min incubation, the luminescence signal was measured using a Wallac EnVision® multilabel reader (PerkinElmer, Waltham Mass.).
(§5) Curve fitting and IC50 calculation were carried out using a four-parameter logistic model in XLfit (IDBS, Guilford, UK) for Microsoft Excel (Microsoft, Redmont, Wash.).

PI3Kδ = target: T2, PI3Kδ (Homo sapiens, UniProt O00329); experiment: In vitro determination of the PI3K enzyme inhibitory activity in the cell free assay (ADP-Glo Kinase Assay), PI3Kδ; settings: ATP 80 μM, read-out: PI3K delta inhibition
T2 construct: purchased Millipore Ltd (Billerica, Mass.)
T2 sequence (O00329 whole entry): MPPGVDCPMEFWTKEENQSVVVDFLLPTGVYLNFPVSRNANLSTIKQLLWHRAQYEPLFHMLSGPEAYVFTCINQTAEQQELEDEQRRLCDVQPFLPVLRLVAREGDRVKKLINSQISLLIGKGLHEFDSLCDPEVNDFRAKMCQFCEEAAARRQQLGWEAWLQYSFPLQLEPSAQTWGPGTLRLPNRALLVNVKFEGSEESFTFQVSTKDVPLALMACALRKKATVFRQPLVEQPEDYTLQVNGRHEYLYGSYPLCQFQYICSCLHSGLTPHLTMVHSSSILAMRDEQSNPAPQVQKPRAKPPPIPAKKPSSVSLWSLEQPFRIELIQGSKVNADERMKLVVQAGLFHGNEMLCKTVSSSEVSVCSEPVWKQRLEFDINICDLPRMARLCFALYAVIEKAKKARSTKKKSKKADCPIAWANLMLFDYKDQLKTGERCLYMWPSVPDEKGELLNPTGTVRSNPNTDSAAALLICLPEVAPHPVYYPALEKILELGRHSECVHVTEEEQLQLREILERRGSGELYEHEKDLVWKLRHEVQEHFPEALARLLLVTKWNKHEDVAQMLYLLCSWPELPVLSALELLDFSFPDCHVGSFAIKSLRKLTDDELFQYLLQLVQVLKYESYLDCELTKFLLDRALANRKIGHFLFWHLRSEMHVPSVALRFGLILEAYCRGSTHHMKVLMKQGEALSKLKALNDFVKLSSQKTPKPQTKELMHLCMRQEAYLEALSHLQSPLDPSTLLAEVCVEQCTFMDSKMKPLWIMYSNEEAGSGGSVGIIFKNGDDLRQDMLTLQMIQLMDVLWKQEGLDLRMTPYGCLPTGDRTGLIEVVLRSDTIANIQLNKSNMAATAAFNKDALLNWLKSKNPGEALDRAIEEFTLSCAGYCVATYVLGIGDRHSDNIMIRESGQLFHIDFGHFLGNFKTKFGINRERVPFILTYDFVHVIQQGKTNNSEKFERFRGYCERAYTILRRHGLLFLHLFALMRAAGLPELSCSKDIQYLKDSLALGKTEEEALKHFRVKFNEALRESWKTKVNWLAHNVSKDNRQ
T2 sequence (P27986 whole entry partner): as the sequence (P27986 whole entry partner) above
Protocol: as §1, §2, §3, §4, §5

PI3Kγ = target: T3, PI3Kγ (Homo sapiens, UniProt P48736); experiment: In vitro determination of the PI3K enzyme inhibitory activity in the cell free assay (ADP-Glo Kinase Assay), PI3Kγ; settings: ATP 30 μM, read-out: PI3K gamma inhibition
T3 construct: purchased Millipore Ltd (Billerica, Mass.)
T3 sequence (P48736 whole entry): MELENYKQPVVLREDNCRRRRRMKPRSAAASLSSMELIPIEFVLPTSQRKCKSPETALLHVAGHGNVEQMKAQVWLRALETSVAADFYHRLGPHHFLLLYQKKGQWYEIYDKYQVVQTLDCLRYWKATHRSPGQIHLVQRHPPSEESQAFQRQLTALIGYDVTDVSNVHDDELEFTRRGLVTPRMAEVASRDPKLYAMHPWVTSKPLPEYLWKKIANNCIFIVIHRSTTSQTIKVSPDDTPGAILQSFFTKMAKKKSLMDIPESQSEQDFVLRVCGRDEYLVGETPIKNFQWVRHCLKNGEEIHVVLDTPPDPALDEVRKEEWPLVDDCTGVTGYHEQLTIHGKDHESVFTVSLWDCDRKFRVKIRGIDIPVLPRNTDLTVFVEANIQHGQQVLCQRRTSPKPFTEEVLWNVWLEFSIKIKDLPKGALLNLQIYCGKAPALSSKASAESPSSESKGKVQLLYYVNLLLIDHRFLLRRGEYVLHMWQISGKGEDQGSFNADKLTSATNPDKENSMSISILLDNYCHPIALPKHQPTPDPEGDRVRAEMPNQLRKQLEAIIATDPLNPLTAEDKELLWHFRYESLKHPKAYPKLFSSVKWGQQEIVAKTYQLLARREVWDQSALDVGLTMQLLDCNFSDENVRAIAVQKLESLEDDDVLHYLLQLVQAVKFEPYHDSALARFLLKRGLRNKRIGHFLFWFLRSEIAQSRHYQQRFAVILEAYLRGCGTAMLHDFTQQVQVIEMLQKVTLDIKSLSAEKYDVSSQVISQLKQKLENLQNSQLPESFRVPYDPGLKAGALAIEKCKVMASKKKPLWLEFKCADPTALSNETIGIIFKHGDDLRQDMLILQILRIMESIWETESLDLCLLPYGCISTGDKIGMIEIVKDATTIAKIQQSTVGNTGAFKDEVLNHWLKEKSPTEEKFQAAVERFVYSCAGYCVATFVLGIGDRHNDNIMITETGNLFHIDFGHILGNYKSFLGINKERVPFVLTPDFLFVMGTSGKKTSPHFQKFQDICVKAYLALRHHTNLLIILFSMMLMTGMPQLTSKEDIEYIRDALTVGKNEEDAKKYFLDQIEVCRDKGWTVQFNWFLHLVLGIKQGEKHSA
Protocol: as §1, §2, §3, §4, §5

PI3Kβ = target: T4, PI3Kβ (Homo sapiens, UniProt P42338); experiment: In vitro determination of the PI3K enzyme inhibitory activity in the cell free assay (ADP-Glo Kinase Assay), PI3Kβ; settings: ATP 100 μM, read-out: PI3K beta inhibition
T4 construct: purchased Millipore Ltd (Billerica, Mass.)
T4 sequence (P42338 whole entry): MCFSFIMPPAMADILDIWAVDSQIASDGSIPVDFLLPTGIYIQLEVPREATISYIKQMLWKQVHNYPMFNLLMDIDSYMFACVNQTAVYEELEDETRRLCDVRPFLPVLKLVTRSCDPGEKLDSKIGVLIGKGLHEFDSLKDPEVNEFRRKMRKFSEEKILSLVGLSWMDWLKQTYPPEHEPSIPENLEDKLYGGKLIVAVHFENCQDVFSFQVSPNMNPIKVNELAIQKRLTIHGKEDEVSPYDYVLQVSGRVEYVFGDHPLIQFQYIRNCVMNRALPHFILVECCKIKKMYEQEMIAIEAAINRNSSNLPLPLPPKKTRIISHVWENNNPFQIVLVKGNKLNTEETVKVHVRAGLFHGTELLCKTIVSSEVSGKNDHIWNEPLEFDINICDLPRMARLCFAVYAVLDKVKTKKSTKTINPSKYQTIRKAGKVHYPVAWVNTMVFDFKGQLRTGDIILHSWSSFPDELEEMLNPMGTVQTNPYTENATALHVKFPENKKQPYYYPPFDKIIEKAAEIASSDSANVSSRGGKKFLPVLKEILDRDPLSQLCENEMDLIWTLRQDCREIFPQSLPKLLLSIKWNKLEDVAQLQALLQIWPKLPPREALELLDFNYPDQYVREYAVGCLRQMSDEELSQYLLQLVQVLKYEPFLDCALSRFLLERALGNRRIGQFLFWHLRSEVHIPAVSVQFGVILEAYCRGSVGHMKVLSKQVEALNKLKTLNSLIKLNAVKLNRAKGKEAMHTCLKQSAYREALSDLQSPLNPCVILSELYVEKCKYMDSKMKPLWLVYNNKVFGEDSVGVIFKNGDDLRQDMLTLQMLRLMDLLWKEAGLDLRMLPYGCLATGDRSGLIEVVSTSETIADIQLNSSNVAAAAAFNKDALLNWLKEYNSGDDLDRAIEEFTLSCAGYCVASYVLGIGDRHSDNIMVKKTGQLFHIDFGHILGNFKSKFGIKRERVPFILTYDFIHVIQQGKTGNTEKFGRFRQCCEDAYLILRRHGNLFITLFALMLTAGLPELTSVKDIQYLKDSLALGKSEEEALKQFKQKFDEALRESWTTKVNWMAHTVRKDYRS
T4 sequence (P27986 whole entry partner): as the sequence (P27986 whole entry partner) above
Protocol: as §1, §2, §3, §4, §5

Compound | IC50 (PI3Kα) [nM] | IC50 (PI3Kδ) [nM] | IC50 (PI3Kγ) [nM] | IC50 (PI3Kβ) [nM]
C[C@H](c1c(C#N)c2ccccn2c1-c1cccc(CN(C)C)c1)n1nc(-c2cc(O)cc(F)c2)c2c(N)ncnc21 (single isomer, unassigned) [Example 127a, 2-{1-[4-amino-3-(3-fluoro-5-hydroxyphenyl)-1H-pyrazolo[3,4-d]pyrimidin-1-yl]ethyl}-3-{3-[(dimethylamino)methyl]phenyl}indolizine-1-carbonitrile] | 10 to 1000 | < 10 | 10 to 1000 | 10 to 1000
C[C@H](c1c(C#N)c2ccccn2c1-c1cccc(CN(C)C)c1)n1nc(-c2cc(O)cc(F)c2)c2c(N)ncnc21 (single isomer, unassigned) [Example 127b, 2-{1-[4-amino-3-(3-fluoro-5-hydroxyphenyl)-1H-pyrazolo[3,4-d]pyrimidin-1-yl]ethyl}-3-{3-[(dimethylamino)methyl]phenyl}indolizine-1-carbonitrile] | > 1000 | < 10 | > 1000 | > 1000
CC(c1cc2ccccn2c1-c1ccn(CCN(C)C)c(=O)c1)n1nc(-c2cc(O)cc(F)c2)c2c(N)ncnc21 (single isomer, unassigned) [Example 133a, 4-(2-{1-[4-amino-3-(3-fluoro-5-hydroxyphenyl)-1H-pyrazolo[3,4-d]pyrimidin-1-yl]ethyl}indolizin-3-yl)-1-[2-(dimethylamino)ethyl]-1,2-dihydropyridin-2-one] | > 1000 | 10 to 1000 | > 1000 | > 1000
CC(c1cc2ccccn2c1-c1ccn(CCN(C)C)c(=O)c1)n1nc(-c2cc(O)cc(F)c2)c2c(N)ncnc21 (single isomer, unassigned) [Example 133b, 4-(2-{1-[4-amino-3-(3-fluoro-5-hydroxyphenyl)-1H-pyrazolo[3,4-d]pyrimidin-1-yl]ethyl}indolizin-3-yl)-1-[2-(dimethylamino)ethyl]-1,2-dihydropyridin-2-one] | 10 to 1000 | < 10 | 10 to 1000 | 10 to 1000
Nc1ncnc2c1ncn2Cc1cc2ccccn2c1-c1ccccc1 [Example 1, 9-[(3-phenylindolizin-2-yl)methyl]-9H-purin-6-amine] | > 1000 | > 1000 | > 1000 | > 1000
Nc1ncn(Cc2cc3ccccn3c2-c2ccccc2)c2ncnc1-2 [Example 2, 3-[(3-phenylindolizin-2-yl)methyl]-3H-purin-6-amine] | > 1000 | > 1000 | > 1000 | > 1000
Nc1ncnc2c1ncn2Cc1cc2ccccn2c1-c1ccccn1 [Example 3, 9-{[3-(pyridin-2-yl)indolizin-2-yl]methyl}-9H-purin-6-amine] | > 1000 | > 1000 | > 1000 | > 1000
Nc1ncnc2c1ncn2Cc1cc2ccccn2c1-c1cccc(F)c1 [Example 4, 9-{[3-(3-fluorophenyl)indolizin-2-yl]methyl}-9H-purin-6-amine] | > 1000 | 10 to 1000 | > 1000 | > 1000
Nc1ncn(Cc2cc3ccccn3c2-c2cccc(F)c2)c2ncnc1-2 [Example 5, 3-{[3-(3-fluorophenyl)indolizin-2-yl]methyl}-3H-purin-6-amine] | > 1000 | > 1000 | > 1000 | > 1000
Nc1ncnc2c1ncn2Cc1cc2ccccn2c1-c1ccccc1F [Example 6, 9-{[3-(2-fluorophenyl)indolizin-2-yl]methyl}-9H-purin-6-amine] | > 1000 | > 1000 | > 1000 | > 1000
Cc1ccccc1-c1c(Cn2cnc3c(N)ncnc32)cc2ccccn12 [Example 7, 9-{[3-(2-methylphenyl)indolizin-2-yl]methyl}-9H-purin-6-amine] | > 1000 | > 1000 | > 1000 | > 1000
Cc1ccccc1-c1c(Cn2cnc(N)c3ncnc2-3)cc2ccccn12 [Example 8, 3-{[3-(2-methylphenyl)indolizin-2-yl]methyl}-3H-purin-6-amine] | > 1000 | > 1000 | > 1000 | > 1000
Nc1ncnc2c1ncn2Cc1cc2ccccn2c1 [Example 9, 9-(indolizin-2-ylmethyl)-9H-purin-6-amine] | > 1000 | > 1000 | > 1000 | > 1000
Nc1ncnc2c1ncn2Cc1cn2ccccc2c1-c1cccc(F)c1 [Example 11, 9-{[1-(3-fluorophenyl)indolizin-2-yl]methyl}-9H-purin-6-amine] | > 1000 | > 1000 | > 1000 | > 1000
Cc1ccccc1-c1c(Cn2cnc3c(N)ncnc32)cn2ccccc12 [Example 12, 9-{[1-(2-methylphenyl)indolizin-2-yl]methyl}-9H-purin-6-amine] | > 1000 | > 1000 | > 1000 | > 1000
N#Cc1c(N)ncnc1NCc1cc2ccccn2c1-c1ccccc1 [Example 22, 4-amino-6-{[(3-phenylindolizin-2-yl)methyl]amino}pyrimidine-5-carbonitrile] | > 1000 | 10 to 1000 | > 1000 | > 1000
N#Cc1c(N)ncnc1NCc1cc2ccccn2c1-c1cccc(F)c1 [Example 24, 4-amino-6-({[3-(3-fluorophenyl)indolizin-2-yl]methyl}amino)pyrimidine-5-carbonitrile] | > 1000 | 10 to 1000 | > 1000 | > 1000

Further lines, results first:

IC50 (PI3Kα) [nM] | IC50 (PI3Kδ) [nM] | IC50 (PI3Kγ) [nM] | IC50 (PI3Kβ) [nM] | Compound
> 1000 | > 1000 | > 1000 | > 1000 | Nc1ncnc2c1ncn2Cc1cn2ccccc2c1-c1ccccc1 [Example 10, 9-[(1-phenylindolizin-2-yl)methyl]-9H-purin-6-amine]
> 1000 | > 1000 | > 1000 | > 1000 | c1ccc(-c2c(CNc3ncnc4[nH]cnc34)cc3ccccn23)cc1 [Example 13, N-[(3-phenylindolizin-2-yl)methyl]-9H-purin-6-amine]
> 1000 | > 1000 | > 1000 | > 1000 | c1ccc(-c2c(CNc3ncnc4[nH]cnc34)cc3ccccn23)nc1 [Example 14, N-{[3-(pyridin-2-yl)indolizin-2-yl]methyl}-9H-purin-6-amine]
> 1000 | > 1000 | > 1000 | > 1000 | Fc1cccc(-c2c(CNc3ncnc4[nH]cnc34)cc3ccccn23)c1 [Example 15, N-{[3-(3-fluorophenyl)indolizin-2-yl]methyl}-9H-purin-6-amine]
> 1000 | > 1000 | > 1000 | > 1000 | Fc1ccccc1-c1c(CNc2ncnc3[nH]cnc23)cc2ccccn12 [Example 16, N-{[3-(2-fluorophenyl)indolizin-2-yl]methyl}-9H-purin-6-amine]
> 1000 | > 1000 | > 1000 | > 1000 | c1ccc(-c2c(CNc3ncnc4[nH]cnc34)cn3ccccc23)cc1 [Example 17, N-[(1-phenylindolizin-2-yl)methyl]-9H-purin-6-amine]
> 1000 | 10 to 1000 | > 1000 | > 1000 | Fc1cccc(-c2c(CNc3ncnc4[nH]cnc34)cn3ccccc23)c1 [Example 18, N-{[1-(3-fluorophenyl)indolizin-2-yl]methyl}-9H-purin-6-amine]
> 1000 | > 1000 | > 1000 | > 1000 | Cc1ccccc1-c1c(CNc2ncnc3[nH]cnc23)cn2ccccc12 [Example 19, N-{[1-(2-methylphenyl)indolizin-2-yl]methyl}-9H-purin-6-amine]
> 1000 | 10 to 1000 | > 1000 | > 1000 | c1ccc(-c2c(CNc3ncnc4[nH]cnc34)cn3ccccc23)nc1 [Example 20, N-{[1-(pyridin-2-yl)indolizin-2-yl]methyl}-9H-purin-6-amine]
> 1000 | 10 to 1000 | > 1000 | 10 to 1000 | c1ccn2cc(CNc3ncnc4[nH]cnc34)cc2c1 [Example 21, N-(indolizin-2-ylmethyl)-9H-purin-6-amine]
> 1000 | 10 to 1000 | > 1000 | > 1000 | N#Cc1c(N)ncnc1NCc1cc2ccccn2c1-c1ccccn1 [Example 23, 4-amino-6-({[3-(pyridin-2-yl)indolizin-2-yl]methyl}amino)pyrimidine-5-carbonitrile]
